Holding throughout (assay): relative viability (nuclei count vs DMSO), 5 days (fraction); higher = more cells survive
Compound in test [1]: C1=CC=C(C(=C1)C2=CC=C(C=C2)C3=CSC4=C3C(=C(C(=O)N4)C#N)O)O + CC(=O)Nc1cccc(-n2c(=O)n(C3CC3)c(=O)c3c(Nc4ccc(I)cc4F)n(C)c(=O)c(C)c32)c1 [Trametinib] (partner 0.02 µM)
A digest of the protocol:
(§1)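 For relative viability, nuclei counts in treated wells were divided by those in vehicle wells. Lung cancer cell lines had been pin-tool dosed in 1536-well plates the day after seeding and cultured for 5 days, then fixed and stained in one step (final 0.05% Triton X-100, 1% formaldehyde, 1 ug/ml Hoechst) and imaged at 4×. Doses were one drug alone or a fixed anchor-drug dose plus five library-drug doses (not always all listed) in √10 steps, and values are duplicate-plate medians.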

Compound in the test “Ricolinostat + Olaparib”: O=C(CCCCCCNC(=O)c1cnc(N(c2ccccc2)c2ccccc2)nc1)NO [Ricolinostat] + O=C(c1cc(Cc2n[nH]c(=O)c3ccccc23)ccc1F)N1CCN(C(=O)C2CC2)CC1 [Olaparib] (partner 8 µM)
A digest of the protocol:
as §1

Compound in test [2]: O=C(CCCCCCNC(=O)c1cnc(N(c2ccccc2)c2ccccc2)nc1)NO [Ricolinostat] + N=C(N)NC(=N)NCCc1ccccc1 [Phenformin] (partner 250 µM)
The method in brief: as §1

Compound in test [3]: O=C(CCCCCCNC(=O)c1cnc(N(c2ccccc2)c2ccccc2)nc1)NO [Ricolinostat] + CC1(C)CCC(c2ccc(Cl)cc2)=C(CN2CCN(c3ccc(C(=O)NS(=O)(=O)c4ccc(N[C@H](CCN5CCOCC5)CSc5ccccc5)c(S(=O)(=O)C(F)(F)F)c4)cc3)CC2)C1 [Navitoclax] (partner 0.5 µM)
The method in brief: as §1

Turning to COR-L23, the relative viability in test [1] (first compound 0.08 µM) stood at 0.669; in test [1] (first compound 0.253 µM) it was 0.716; in test [1] (first compound 0.8 µM) it was 0.76; in test [1] (first compound 2.53 µM), 0.552; in test [1] (first compound 8 µM) it was 0.521; in the test with Ricolinostat + Olaparib (first compound 0.08 µM), 0.247. For the same cell line, the relative viability in the test with Ricolinostat + Olaparib (first compound 0.253 µM) worked out at 0.315; with Ricolinostat + Olaparib (first compound 0.8 µM), 0.267; in the test with Ricolinostat + Olaparib (first compound 2.53 µM) it was 0.168; in test [2] (first compound 0.08 µM), 0.363; in test [2] (first compound 0.253 µM), 0.379; in test [2] (first compound 0.8 µM) it was 0.402. Moreover, the relative viability in test [2] (first compound 2.53 µM) was determined as 0.227; in test [3] (first compound 0.08 µM) it was 0.943; in test [3] (first compound 0.253 µM), 1.07; in test [3] (first compound 0.8 µM) it was 0.978; in test [3] (first compound 2.53 µM), 0.511.

Regarding EPLC-272H, the relative viability is 0.269 in test [1] (first compound 0.08 µM); 0.245 in test [1] (first compound 0.8 µM); 0.252 in test [1] (first compound 2.53 µM); 0.289 in test [1] (first compound 8 µM); 0.866 in the test with Ricolinostat + Olaparib (first compound 0.08 µM); 0.938 with Ricolinostat + Olaparib (first compound 0.253 µM). The relative viability amounted to 0.612 with Ricolinostat + Olaparib (first compound 0.8 µM); 0.309 with Ricolinostat + Olaparib (first compound 2.53 µM); 0.263 in test [2] (first compound 0.08 µM); 0.273 in test [2] (first compound 0.253 µM); 0.26 in test [2] (first compound 0.8 µM); 0.144 in test [2] (first compound 2.53 µM). Further, the relative viability in test [3] (first compound 0.253 µM) came to 0.784; in test [3] (first compound 0.8 µM), 0.992; in test [3] (first compound 2.53 µM) it was 0.631.

With H3255, the relative viability turned out to be 0.57 in test [1] (first compound 0.08 µM); 0.676 in test [1] (first compound 0.253 µM); 0.782 in test [1] (first compound 2.53 µM); 0.526 in test [1] (first compound 8 µM); 0.543 with Ricolinostat + Olaparib (first compound 0.08 µM); 0.529 with Ricolinostat + Olaparib (first compound 0.253 µM). Also, the relative viability in the test with Ricolinostat + Olaparib (first compound 0.8 µM) came to 0.525; with Ricolinostat + Olaparib (first compound 2.53 µM), 0.506; in test [2] (first compound 0.08 µM) it was 0.367; in test [2] (first compound 0.253 µM) it was 0.358; in test [2] (first compound 0.8 µM), 0.405; in test [2] (first compound 2.53 µM) it was 0.416. For the same cell line, the relative viability in test [3] (first compound 0.08 µM) turned out to be 0.537; in test [3] (first compound 0.253 µM), 0.495; in test [3] (first compound 0.8 µM), 0.483; in test [3] (first compound 2.53 µM), 0.483.

Regarding NCI-H1944, the relative viability in test [1] (first compound 0.08 µM) amounted to 0.459; in test [1] (first compound 0.253 µM) it was 0.396; in test [1] (first compound 0.8 µM) it was 0.357; in test [1] (first compound 2.53 µM), 0.423; in test [1] (first compound 8 µM), 0.434; with Ricolinostat + Olaparib (first compound 0.08 µM), 0.404. The relative viability with Ricolinostat + Olaparib (first compound 0.253 µM) was determined as 0.369; with Ricolinostat + Olaparib (first compound 0.8 µM), 0.308; with Ricolinostat + Olaparib (first compound 2.53 µM), 0.296; in test [2] (first compound 0.08 µM), 0.181; in test [2] (first compound 0.253 µM), 0.18; in test [2] (first compound 0.8 µM) it was 0.174. The relative viability in test [2] (first compound 2.53 µM) was determined as 0.151; in test [3] (first compound 0.08 µM) it was 0.993; in test [3] (first compound 0.253 µM), 0.972; in test [3] (first compound 0.8 µM), 1.04; in test [3] (first compound 2.53 µM), 0.901.

As for NCI-H23, the relative viability in test [1] (first compound 0.08 µM) amounted to 0.333; in test [1] (first compound 0.253 µM), 0.321; in test [1] (first compound 0.8 µM), 0.383; in test [1] (first compound 2.53 µM) it was 0.379; in test [1] (first compound 8 µM), 0.261; with Ricolinostat + Olaparib (first compound 0.08 µM), 0.351. Besides, the relative viability in the test with Ricolinostat + Olaparib (first compound 0.253 µM) is 0.278; with Ricolinostat + Olaparib (first compound 0.8 µM) it was 0.27; in the test with Ricolinostat + Olaparib (first compound 2.53 µM) it was 0.275; in test [2] (first compound 0.08 µM), 0.72; in test [2] (first compound 0.253 µM), 0.749; in test [2] (first compound 0.8 µM), 0.8. For the same cell line, the relative viability in test [2] (first compound 2.53 µM) was 0.706; in test [3] (first compound 0.08 µM) it was 0.82; in test [3] (first compound 0.253 µM), 0.791; in test [3] (first compound 0.8 µM) it was 0.924; in test [3] (first compound 2.53 µM), 0.932.

Regarding HCC-366, the relative viability came out at 0.385 in test [1] (first compound 0.253 µM); 0.363 in test [1] (first compound 0.8 µM); 0.439 in test [1] (first compound 2.53 µM); 0.314 in test [1] (first compound 8 µM); 0.272 with Ricolinostat + Olaparib (first compound 0.08 µM); 0.309 with Ricolinostat + Olaparib (first compound 0.253 µM). Also, the relative viability with Ricolinostat + Olaparib (first compound 0.8 µM) came to 0.277; with Ricolinostat + Olaparib (first compound 2.53 µM) it was 0.212; in test [2] (first compound 0.08 µM) it was 0.509; in test [2] (first compound 0.253 µM), 0.606; in test [2] (first compound 0.8 µM), 0.619; in test [2] (first compound 2.53 µM), 0.432. The relative viability in test [3] (first compound 0.08 µM) stood at 0.831; in test [3] (first compound 0.253 µM) it was 0.957; in test [3] (first compound 0.8 µM), 1.06; in test [3] (first compound 2.53 µM), 0.978.

As to NCI-H2405, the relative viability in test [1] (first compound 0.08 µM) came out at 0.55; in test [1] (first compound 0.8 µM) it was 0.639; in test [1] (first compound 2.53 µM), 0.601; in test [1] (first compound 8 µM), 0.574; in the test with Ricolinostat + Olaparib (first compound 0.08 µM), 0.705; with Ricolinostat + Olaparib (first compound 0.253 µM) it was 0.858. Besides, the relative viability with Ricolinostat + Olaparib (first compound 0.8 µM) is 0.814; with Ricolinostat + Olaparib (first compound 2.53 µM), 0.937; in test [2] (first compound 0.08 µM), 0.356; in test [2] (first compound 0.253 µM), 0.44; in test [2] (first compound 0.8 µM), 0.416; in test [2] (first compound 2.53 µM), 0.358. Besides, the relative viability in test [3] (first compound 0.08 µM) is 0.577; in test [3] (first compound 0.253 µM), 0.935; in test [3] (first compound 0.8 µM) it was 0.975; in test [3] (first compound 2.53 µM), 0.77.

Turning to NCI-H441, the relative viability in test [1] (first compound 0.08 µM) turned out to be 0.35; in test [1] (first compound 0.253 µM), 0.443; in test [1] (first compound 0.8 µM), 0.431; in test [1] (first compound 2.53 µM) it was 0.496; in test [1] (first compound 8 µM), 0.362; with Ricolinostat + Olaparib (first compound 0.08 µM) it was 0.575. Also, the relative viability with Ricolinostat + Olaparib (first compound 0.253 µM) worked out at 0.471; in the test with Ricolinostat + Olaparib (first compound 0.8 µM), 0.478; with Ricolinostat + Olaparib (first compound 2.53 µM) it was 0.455; in test [2] (first compound 0.253 µM) it was 0.956; in test [2] (first compound 0.8 µM) it was 0.889; in test [2] (first compound 2.53 µM), 0.643. Moreover, the relative viability is 0.77 in test [3] (first compound 0.08 µM), 0.411 in test [3] (first compound 0.253 µM), 0.798 in test [3] (first compound 0.8 µM) and 0.357 in test [3] (first compound 2.53 µM).

Consider NCI-H322M, for which the relative viability in test [1] (first compound 0.08 µM) is 0.501; in test [1] (first compound 0.253 µM) it was 0.464; in test [1] (first compound 0.8 µM), 0.548; in test [1] (first compound 2.53 µM), 0.539; in test [1] (first compound 8 µM), 0.503; in the test with Ricolinostat + Olaparib (first compound 0.08 µM) it was 0.664. The relative viability with Ricolinostat + Olaparib (first compound 0.253 µM) stood at 0.879; in the test with Ricolinostat + Olaparib (first compound 0.8 µM), 0.807; in the test with Ricolinostat + Olaparib (first compound 2.53 µM) it was 0.907; in test [2] (first compound 0.253 µM), 0.839; in test [2] (first compound 0.8 µM) it was 0.767; in test [2] (first compound 2.53 µM) it was 0.761. Moreover, the relative viability in test [3] (first compound 0.253 µM) amounted to 1.2; in test [3] (first compound 0.8 µM), 1.27; in test [3] (first compound 2.53 µM) it was 1.08.

The values above are taken from the supplement of paper PMC10307832.
